# PMC7712530 (Nucleosides, nucleotides & nucleic acids, 2015)
# How the values were obtained:
# MT-4 cells = assay: Cytotoxicity assay; type: cell-based; settings: for cytotoxicity (in words): text: toward HepG2 cells, table head and method say MT-4
# HBV [1] = assay: Anti-HBV assay in HepG2 2.2.15 cells; type: cell-based; settings: for EC50: Hepatitis B virus, HepG2 2.2.15, 144 h, read-out: EC50 anti-HBV activity
# HBV [2] = settings: relative to entecavir 1; ref 3a; cited from earlier work
molecule,measurement,setting,value
9-[Bis-O-(pivaloyoxymethyl)phosphorylmethoxy]allyl]guanine [Compound 8],cytotoxicity (in words),MT-4 cells,cytotoxicity toward HepG2 cells was also observed
"C=C(CCO)Cn1cnc2c(=O)[nH]c(N)nc21 [Compound 6, 2-Amino-9-(4-hydroxy-2-methylenebutyl)-1H-purin-6(9H)-one]",anti-HBV activity (in words),HBV [1]; HepG2 2.2.15 cells,neither exhibit anti-HBV activity
same,EC50,HBV [1],> 1000 nM
same,cytotoxicity (in words),MT-4 cells,nor display any cytotoxicity
"C=C1[C@H](CO)[C@@H](O)C[C@@H]1n1cnc2c(=O)[nH]c(N)nc21 [Entecavir, entecavir, reference compound]",EC50,HBV [1],0.77 nM
Nc1nc2c(ncn2[C@H]2C[C@@H](CO)[C@H](O)C2)c(=O)[nH]1 [carbocyclic dG],"potency, times less than that of entecavir (1)",HBV [2],10 times
"CC(C)(C)C(=O)O [pivalic acid, reference compound]",concentration up to which no cytotoxicity was shown,MT-4 cells; in this assay system,> 100 µM
